Test results from patent US5440031A, “1,4,10,13-tetraoxa-7,16-diazacyclooctadecane derivatives, pharmaceutical compositions containing them and their use for the removal of toxic metal ions and radioactive isotopes from living organism” (priority 1990, dated 1995).
“Also recorded” adds a separate entry of the source.

Assays:
[1] = decorporation investigations by various routes, whole-body activity and deposition in bones; format: in vivo, Swiss mice and Wistar rats; details: decorporating effect; disodium salt
Source text: (§1) The action of the compounds of formula (I) according to the invention, which manifests itself as an increase in the elimination of metal ions damaging the living organism, was investigated by using radioactive strontium or cerium ions on Swiss mice and Wistar rats of both sexes.
(§2) The elimination was studied on radioactive isotopes introduced in various routes to various sites, e.g. to the blood circulation, abdominal cavity, lungs, muscles or subcutaneous connective tissue of the experimental animals. The compound increasing the elimination of the isotopes was administered daily once or two times in the form of an injection, powder or liquid aerosol or plaster to the organism of the experimental animals. Thereafter, whole body activity measurements were performed and retention curves were taken up which then were compared to the results obtained in the control group.
The retention curves obtained were analysed on a computer. "Nonlinear Regression by the Code of BMDP-3R" (BMDP Statistical Software Manual, UCLA, Los Angeles, 1990, Chief Ed. W. J. Dixon) computer software was used for this purpose. It could be stated from the results obtained that the curves could be described by a two-component descending exponential function. Two data were calculated for characterizing the effectivity. […]

laboratory mice and rats = assay: acute toxicity, LD50/30, injection into blood circulation, 30 days observation; format: in vivo, Swiss mice and Wistar rats
Description: The acute toxicity values of the products prepared according to Examples 1 to 16 were determined on laboratory mice and rats in the following manner.
Solutions containing the compounds in various concentrations were prepared by using physiological saline solution or glucose solution of 5% by weight concentration and the active agents were administered in various concentrations into the blood circulation of the animals by injecting them slowly during 3 to 5 minutes. Groups consisting of 6 to 10 animals (Swiss mice and Wistar rats of both sexes) each were used for the various dose levels. […] The LD50/30 value (i.e. the dose causing the death of 50% of the experimental animals within 30 days) was determined from the number of animals died during this period by using probit analysis/D. J. Finney: Probit Analysis (2nd ed.) Cambridge University Press (1952)/. These values expressed in mmol/kg of body-weight for the active agents according to the invention are summarized in column (B) of Table 1.

[2] = literature; cited from earlier work
[3] = elimination of radioactive strontium introduced through the trachea into the lungs, whole-body retention (FIG. 2); format: in vivo, Wistar rats
Source text: FIGS. 2 & 3 show the percentages of metal ions retained in the body, plotted over 32 days after treatment with compound "b)" of example 6 at both full and double strength, referenced against an untreated control.
a) The whole-body retention curves illustrated in FIG. 2 show the elimination of radioactive strontium introduced through the trachea into the lungs of Wistar rats after intraperitoneal (i.p.) administration of the compound described in Example 6 b). It can be seen from the pattern of the upper curve of FIG. 2 that the radioactive strontium was eliminated to a low grade from the organism of control animals treated only with the solvent. Not more than 30 to 35% of the starting activity were eliminated in the days following the inner contamination. […] The rapid elimination of the isotope was continued in the days following the treatment, and reached 88 to 90% in the once-treated group and 94 to 96% in the twice-treated group. […] The residual activity of 5 to 10% measured as whole-body retention was found in the soft parts and liver of the animals whereas the major part (65 to 70%) of the retention found in the controls were built in to the bones. Similarly advantageous results were obtained by administering the compounds according to the invention in an intravenous route or into the subcutaneous connective tissue.

[4] = radioactive isotope elimination-increasing effect, isotope into abdominal cavity, whole-body retention; format: in vivo, Swiss mice
Source text: as §1, §2
The retention curves obtained were analysed on a computer. "Nonlinear Regression by the Code of BMDP-3R" (BMDP Statistical Software Manual, UCLA, Los Angeles, 1990, Chief Ed. W. J. Dixon) computer software was used for this purpose. It could be stated from the results obtained that the curves could be described by a two-component descending exponential function. Two data were calculated for characterizing the effectivity. One of these was the so-called F factor indicating the increase in the elimination in relation to the control and meaning the multiplication of the isotope elimination under effect of the test compound in relation to the untreated animals/see column (C) in Table 1/.
For the illustrative comparison of the compounds according to the invention additional characteristic data, the so-called EI values are given which were obtained by multiplying the extent of isotope elimination as percentage related to the control group (effectivity, E) with the acute toxicity value (LD50/30, innocuous, I)/see column (D) in Table 1/. Although the EI value is numerically not identical to the therapeutic ratio (safety index), it indicates in all cases to a weak or excellent activity of a product.
The radioactive isotope elimination-increasing effects of compounds prepared according to Examples 1 to 16 were compared on Swiss mice as described hereinafter.
An activity of 37 to 74 kBg (1 to 2 μCi) of radioactive strontium (Sr-85Cl2) or radioactive cerium (Ce-144Cl3), respectively, was administered into the abdominal cavity of the animals which were then divided into treatment groups consisting of 5 to 10 animals each. At 30 to 60 minutes after administration of the isotope, the animals of the treated groups were intravenously (i.v.) given the active agent used in an amount to achieve s concentration of 50 to 100 μmol/kg of body-weight in the animal organism for each treatment. The animals of the control groups were similarly treated with the carrier (sterile physiological saline or glucose solution of 5% by weight concentration) without active agent.
The amount of radioactivity introduced to the animal organism was determined immediately after administration of the isotope, thru these measurements were repeated daily or in every two the or three days in a device constructed for the purpose of the whole-body measurements on small animals. The counts observed were related to the starting activity value of the zero (0) day and a so-called retention/time correlation was obtained by considering the activity retained in the organism. The change of activity of the animal organism in the time is illustrated in FIG. 1 where the time (in days) elapsed after the treatment is shown on the abscissa and the whole-body retention as percentage is plotted on the ordinate. It can be seen that the rate of elimination of Sr-85 administered into the abdominal cavity of control animals was slow: within 1 day only 15%, within 4 days 25% and within 7 days 30% of the activity were eliminated from their organism and the elimination was even more delayed in the later period. […]

With `O=C([O-])C(C(=O)[O-])N1CCOCCOCCN(C(C(=O)[O-])C(=O)[O-])CCOCCOCC1.[Ca+2].[Na+].[Na+]` [N,N'-bis(dicarboxymethyl)-1,4,10,13-tetraoxa-7,16-diazacyclooctadecane calcium complex disodium salt] as the molecule, how does the “effectivity (in words)” value [1] read?
The value was “particularly outstanding effect; also recorded: high decorporating effectivity”.

And the “toxicity (in words)” value (laboratory mice and rats; in vivo)?
The value was “low toxicity”.

For `O=C(O)CN(CCN(CC(=O)O)CC(=O)O)CCN(CC(=O)O)CC(=O)O` [diethylenetriaminepentaacetic acid], which “stability of calcium complexes versus strontium complexes” value [2] is on record?
Its value is “substantially more stable than their strontium complexes”.

Which “stability of calcium complexes versus strontium complexes” value [2] does the source give for `O=C(O)CN(CCN(CC(=O)O)CC(=O)O)CC(=O)O` [ethylenediaminetetraacetic acid] here?
Its value is “substantially more stable than their strontium complexes”.

With “N,N'-bis(dicarboxymethyl)-1,4,10,13-tetraoxa-7,16-diazacyclooctadecane calcium complex disodium salt containing disodium hydroxymalonate and sodium chloride [6/b]” as the molecule, how does the “radioactive strontium in the bones” value ([3]; animals killed at the end of the experiment, controls 65 to 70% of retention built in to the bones) read?
Its value is “hardly any or no radioactive strontium could be detected”.

And the “whole-body load within 1 day following the treatment, treated once” value ([3]; i.p., once with 50 μmol/kg, control 90%)?
The value was 20%.

What about the “whole-body load within 1 day following the treatment, treated twice” value ([3]; i.p., twice in 3-hour interval, control 90%) of the same molecule?
Its value is 20%.

What about the “Acute toxicity LD50/30” value (laboratory mice and rats; dose causing death of 50% of animals within 30 days, slow injection into the blood circulation during 3 to 5 minutes, mice and rats, probit analysis) of the same molecule?
The value was “above 3.0 mmol/kg”.

And the EI value ([4]; effectivity (isotope elimination as % related to control) multiplied by LD50/30, 0-5 weak, 5-50 medium, 50-100 good, above 100 excellent)?
Its EI value is 160.00.

And the F factor ([4]; multiplication of isotope elimination relative to untreated animals, i.v. 50 to 100 μmol/kg, 30 to 60 minutes after isotope)?
Its F factor is 4.2.
